In US6410580B1, “Sulfonylamino derivatives which inhibit matrix-degrading metalloproteinases” (Novartis AG, priority 2000, dated 2002):

| Structure (SMILES) | melting point |
| --- | --- |
| O=C(O)[C@@H](CCCN1C(=O)c2ccccc2C1=O)NS(=O)(=O)c1ccc(-c2ccc(Cl)cc2)cc1 [Example 1, (2R)-(4′-Chlorobiphenyl-4-sulfonylamino)-5-(1,3-dioxo-1,3-dihydroisoindol-2-yl)pentanoic Acid] | 179 to 181 °C |
| O=C(NO)[C@@H](CCCN1C(=O)c2ccccc2C1=O)NS(=O)(=O)c1ccc(-c2ccc(Cl)cc2)cc1 [Example 2, (2R)-(4′-Chiorobiphenyl4-sulfonylamino)-5-(1,3-dioxo-1,3-dihydroisoindol-2-yl)pentanoic Acid Hydroxyamide] | 204 to 206 °C (dec.) |
| O=C(O)[C@@H](CCCN1C(=O)c2ccccc2S1(=O)=O)NS(=O)(=O)c1ccc(-c2ccc(Cl)cc2)cc1 [Example 3, (2R)-(4′-Chlorobiphenyl-4-sulfonylamino)-5-(1,1,3-trioxo-2,3-dihydrobenzoisothiazol-2-yl)pentanoic Acid] | 177 to 179 °C |
| Cn1c(=O)n(CCC[C@@H](NS(=O)(=O)c2ccc(-c3ccc(Cl)cc3)cc2)C(=O)O)c(=O)c2ccccc21 [Example 4, (2R)-(4′-Chlorobiphenyl-4-sulfonylamino)-5-(1,2,3,4-tetrahydro-1-methyl-2,4-dioxoquinazolin-3-yl)pentanoic Acid] | 188 to 191 °C |
| Cn1c(=O)n(CCC[C@@H](NS(=O)(=O)c2ccc(-c3ccccc3)cc2)C(=O)O)c(=O)c2ccccc21 [Example 5, (2R)-(4-Biphenylsulfonylamino)-5-(1,2,3,4-tetrahydro-1-methyl-2,4-dioxoquinazolin-3-yl)pentanoic Acid] | 222 to 224 °C |
| Cc1ccc(S(=O)(=O)NCCC[C@@H](NS(=O)(=O)c2ccc(-c3ccc(Cl)cc3)cc2)C(=O)O)cc1 [Example 7, (2R)-(4′-Chlorobiphenyl-4-sulfonylamino)-5-(4-methylbenzenesulfonylamino)pentanoic Acid] | 62 °C |
| O=C(NO)[C@@H](CCCN1C(=O)c2ccccc2S1(=O)=O)NS(=O)(=O)c1ccc(-c2ccc(Cl)cc2)cc1 [Example 18, (2R)-(4′-Chlorobiphenyl-4-sulfonylamino)-5-(1,1,3-trioxo-2,3-dihydrobenzoisothiazol-2-yl)pentanoic Acid Hydroxyamide] | 200 to 205 °C (dec.) |
| Cn1c(=O)n(CCC[C@@H](NS(=O)(=O)c2ccc(-c3ccc(Cl)cc3)cc2)C(=O)NO)c(=O)c2ccccc21 [Example 19, (2R)-(4′-Chlorobiphenyl-4-sulfonylamino)-5-(1,2,3,4-tetrahydro-1-methyl-2,4-dioxoquinazolin-3-yl)pentanoic Acid Hydroxyamide] | 235 °C |
| Cn1c(=O)n(CCC[C@@H](NS(=O)(=O)c2ccc(-c3ccccc3)cc2)C(=O)NO)c(=O)c2ccccc21 [Example 20, (2R)-(4-Biphenylsulfonylamino)-5-(1,2,3,4-tetrahydro-1-methyl-2,4-dioxoquinazolin-3-yl)pentanoic Acid Hydroxyamide] | 202 to 203 °C |
| Cn1c(=O)n(CCCCC(NS(=O)(=O)c2ccc(-c3ccc(Cl)cc3)cc2)C(=O)O)c(=O)c2ccccc21 [Example 31, (2R,S)-(4′-Chlorobiphenyl-4-sulfonylamino)-6-(1,2,3,4-tetrahydro-1-methyl-2,4-dioxoquinazolin-3-yl)hexanoic Acid] | 208 to 210 °C |
| CC1(C)NC(=O)N(CCCCC(NS(=O)(=O)c2ccc(-c3ccc(Cl)cc3)cc2)C(=O)O)C1=O [Example 32, (2R,S)-(4′-Chlorobiphenyl-4-sulfonylamino)-6-(4,4-dimethyl-2,5-dioxoimidazolidin-1-yl)-hexanoic Acid] | 78 to 80 °C |
| CN1C(=O)N(CC[C@@H](NS(=O)(=O)c2ccc(-c3ccc(Cl)cc3)cc2)C(=O)O)C(=O)C1(C)C [Example 35, (2R)-(4′-Chlorobiphenyl-4-sulfonylamino)-4-(3,4,4-trimethyl-2,5-dioxoimidazolidin-1-yl)-butyric Acid] | 43 °C |
| O=C(O)[C@@H](CCN1C(=O)[C@@H]2Cc3ccccc3CN2C1=O)NS(=O)(=O)c1ccc(-c2ccc(Cl)cc2)cc1 [Example 36, (2R)-(4′-Chlorobiphenyl-4-sulfonylamino)-4-[(1,3-dioxo-1,5,10, (10aS)-tetrahydroimidazo-[1,5-b]isoquinolin-2-yl)]butyric Acid] | 70 °C |

Continued, values first:

| melting point | Structure (SMILES) |
| --- | --- |
| 117 to 120 °C | CN1C(=O)N(CC[C@@H](NS(=O)(=O)c2ccc(-c3ccc(Cl)cc3)cc2)C(=O)NO)C(=O)C1(C)C [Example 38, (2R)-(4′-Chlorobiphenyl-4-sulfonylamino)-4-(3,4,4-trimethyl-2,5-dioxoimidazolidin-1-yl)-butyric Acid Hydroxyamide] |
| 198 to 201 °C | CN1C(=O)N(CC(NS(=O)(=O)c2ccc(-c3ccc(Cl)cc3)cc2)C(=O)O)C(=O)C1(C)C [Example 39, (2R,S)-(4′-Chlorobiphenyl-4-sulfonylamino)-3-(3,4,4-trimethyl-1,2,5-dioxoimidazolidin-1-yl)propanoic Acid] |
| 218 °C (dec.) | Cn1c(=O)n(CC(NS(=O)(=O)c2ccc(-c3ccc(Cl)cc3)cc2)C(=O)O)c(=O)c2ccccc21 [Example 40, (2R,S)-(4′-Chlorobiphenyl-4-sulfonylamino)-3-(1,2,3,4-tetrahydro-1-methyl-2,4-dioxoquinazolin-3-yl)propanoic Acid] |
| 147 to 149 °C | O=C(O)[C@@H](CC(=O)N1CCOCC1)NS(=O)(=O)c1ccc(Oc2ccccc2)cc1 [Example 42, (2R)-(4-Phenyloxybenzenesulfonylamino)-4-morpholin-4-yl-4-oxobutyric Acid] |
| 144 to 146 °C | O=C(O)[C@@H](CC(=O)N1CCOCC1)NS(=O)(=O)c1ccc(-c2ccc(Cl)cc2)cc1 [Example 43, (2R)-(4′-Chlorobiphenyl-4-sulfonylamino)-4-morpholin-4-yl-4-oxobutyric Acid] |
| 161 to 163 °C | O=C(NO)[C@@H](CC(=O)N1CCOCC1)NS(=O)(=O)c1ccc(Oc2ccccc2)cc1 [Example 44, (2R)-(4-Phenyloxybenzenesulfonylamino)-4-morpholin-4-yl-4-oxobutyric Acid Hydroxyamide] |
| 139 to 141 °C | O=C(NO)[C@@H](CC(=O)N1CCOCC1)NS(=O)(=O)c1ccc(-c2ccc(Cl)cc2)cc1 [Example 45, (2R)-(4′-Chlorobiphenyl-4-sulfonylamino)-4-morpholin-4-yI-4-oxobutyric Acid Hydroxyamide] |
